This note sets out measurements from patent US20050209278A1, “Piperidinyl- and piperazinyl-sulfonylmethyl hydroxamic acids and their use as protease inhibitors” (priority 2002, published 2005).

As a reminder, the Ki is the equilibrium dissociation constant of an inhibitor or competing ligand from its target.

For test [1], the target named is T1, MMP-13 (Homo sapiens, UniProt P45452).
T1 construct: made in house; host or cells: baculovirus / insect cells
The experiment in a line: In vitro MMP inhibition, Ki determination (fluorogenic substrate II). Format: biochemical. The following applies: value outside parentheses; read-out: MMP-13 Ki. In outline:
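Room-temperature, 1 h incubation of APMA-activated recombinant human MMP-13 with 4 μM quenched substrate II (cleaved at Gly-Leu) in pH 7.5 Tris/NaCl/CaCl2 buffer. Inhibition appears as a slowed rise in 330/420 nm fluorescence. Single low enzyme and substrate levels were used for Ki.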

Test [2] addresses T1, MMP-13. In words: In vitro MMP inhibition, IC50 determination (fluorogenic substrate I). It is filed as biochemical. The following applies: value in parentheses; read-out: MMP-13 (IC-50). The protocol: Several hydroxamic acids and salts thereof were analyzed in in vitro assays to determine their ability to inhibit the MMP cleavage of peptide substrates. […] and IC50 constants were calculated from the assayed hydroxamic acid-MMP interactions.
Human recombinant MMP-1, MMP-2, MMP-9, MMP-13, and MMP-14 were used in this assay. All enzymes were prepared in Assignee's laboratories following usual laboratory procedures. Protocols for the preparation and use of these enzymes are available in the scientific literature. See, e.g., Enzyme Nomenclature (Academic Press, San Diego, Calif., 1992) (and the citations therein). See also, Freije et al., “Molecular cloning and expression of collagenase-3, a novel human matrix metalloproteinase produced by breast carcinomas,” J Biol. Chem., 269(24), 16766-16773 (1994).
The MMP-13 was obtained as a proenzyme from a full-length cDNA clone using baculovirus, as described by V. A. Luckow, “Insect Cell Expression Technology,” Protein Engineering: Principles and Practice, pp. 183-218 (edited by J. L. Cleland et al., Wiley-Liss, Inc., 1996). The expressed proenzyme was first purified over a heparin agarose column, and then over a chelating zinc chloride column. The proenzyme was then activated by APMA for use in the assay. Further details on baculovirus expression systems may be found in, for example, Luckow et al., J. Virol., 67, 4566-79 (1993). See also, O'Reilly et al, Baculovirus Expression Vectors: A Laboratory Manual (W.H. Freeman and Co., New York, N.Y., 1992). See also, King et al., The Baculovirus Expression System: A Laboratory Guide (Chapman & Hall, London, England, 1992).
All MMPs were activated using 4-aminophenylmercuric acetate (“APMA”, Sigma Chemical, St. Louis, Mo.) or trypsin. MMP-9 also was activated using human recombinant MMP-3 (purified in Assignee's laboratory following standard cloning and purification techniques).
Two fluorogenic, methoxycoumarin-containing polypeptide substrates were used in the MMP inhibition assays: [drawing 427] Here, “Dpa” is 3-(2,4-dinitrophenyl)-L-2,3-diaminopropionyl group, and “MCA” is 7-methoxycoumarin-4-yl acetyl. Substrate (I) was purchased from Baychem (Redwood City, Calif.), and substrate II was prepared Assignee's laboratory. Substrate I was used in the IC50 determination assays, while substrate II was used in the Ki determination assays. In the absence of MMP inhibitory activity, either substrate is cleaved at the Gly-Leu peptide bond. This cleavage separates the highly fluorogenic peptide from the 2,4-dinitrophenyl quencher, thus resulting in increase of fluorescent intensity.
The stock solutions of the assayed hydroxamic acids (or salts thereof) were prepared in 1% dimethyl sulfoxide (DMSO). These stock solutions were diluted in Buffer A (100 mM Tris-HCl, 100 mM NaCl, 10 mM CaCl2, 0.05% polyoxyethylene 23 lauryl ether, pH 7.5) to obtain solutions with different hydroxamic acid concentrations, i.e., assay solutions with different concentrations of the assayed MMP inhibitory compound. The experiment controls contained the same amount of Buffer A/DMSO as the assayed sample, but contained no hydroxamic acid (or salt thereof).
The assays from which the IC50 determinations were made were performed as follows. The MMPs were activated with either trypsin or APMA (4-aminophenylmercuric acetate, Sigma Chemical, St. Louis, Mo.). The assayed hydroxamic acid samples were incubated in Microfluor™ White Plates (Dynatech, Chantilly, Va.) and analyzed on a Perkin Elmer L550 plate reader (Norwalk, Conn.). The excitation wavelength was 328 nm, and the emission wavelength—415 nm. All samples (assayed hydroxamic acids and controls) were incubated in separate plates at room temperature in the presence of 4 μM of MMP substrate (I). As stated in the previous paragraph, samples containing varying concentrations of the same assayed hydroxamic acid were prepared. Inhibition was measured as a reduction in fluorescent intensity as a function of MMP inhibitor concentration. […]

For the compound `CCCCOc1ccc(N2CCN(S(=O)(=O)C3(C(=O)NO)CCN(C(=O)CN)CC3)CC2)cc1` [Example 292], the inhibition constant Ki on MMP-13 [1] stood at 0.98 nM. Further, the IC50 at MMP-13 [2] was 0.7 nM.

Turning to `CCCCOc1ccc(N2CCN(S(=O)(=O)C3(C(=O)NO)CCN(Cc4cccnc4)CC3)CC2)cc1F` [Example 293], the Ki at MMP-13 [1] came to 0.313 nM. For the same compound, the IC50 on MMP-13 [2] amounted to 0.8 nM.

On to `CCCCOc1ccc(N2CCN(S(=O)(=O)C3(C(=O)NO)CCN(c4ccc(C)cc4)CC3)CC2)cc1` [Example 295], for which the Ki on MMP-13 [1] came to 9.13 nM. In addition, on MMP-13 [2], the IC50 was under 0.1 nM.

With `CCCCOc1ccc(N2CCN(S(=O)(=O)C3(C(=O)NO)CCN(c4ccc(C)cc4)CC3)CC2)cc1F` [Example 296], the Ki on MMP-13 [1] was 9.22 nM. The IC50 at MMP-13 [2] is 0.9 nM.

In the case of `COCCOc1ccc(N2CCN(S(=O)(=O)C3(C(=O)NO)CCN(C4CC4)CC3)CC2)cc1F` [Example 297], the Ki on MMP-13 [1] came out at 1.4 nM. For the same compound, the IC50 on MMP-13 [2] was 1.7 nM.

Take `CCCCOc1ccc(N2CCN(S(=O)(=O)C3(C(=O)NO)CCN(CC4CC4)CC3)CC2)cc1` [Example 298]: the Ki at MMP-13 [1] came out at 0.702 nM. Besides, the IC50 at MMP-13 [2] was 0.9 nM.

As to `Cc1cc(N2CCN(S(=O)(=O)C3(C(=O)NO)CCOCC3)CC2)ccc1OC(C)C` [Example 299], the Ki at MMP-13 [1] amounted to 3.04 nM. Besides, the IC50 at MMP-13 [2] amounted to 9.3 nM.

On to `CS(=O)(=O)c1ccc(N2CCN(S(=O)(=O)C3(C(=O)NO)CCOCC3)CC2)cc1` [Example 300], for which, at MMP-13 [1], the Ki worked out at 42.7 nM. Besides, on MMP-13 [2], the IC50 was 61.2 nM.

As for `CCCCOc1ccc(N2CCN(S(=O)(=O)C3(C(=O)NO)CCN(C4CC4)CC3)CC2)cc1` [Example 301], the Ki at MMP-13 [1] was 0.23 nM. At MMP-13 [2], the IC50 was 0.3 nM.

For the compound `C#CCN1CCC(C(=O)NO)(S(=O)(=O)N2CCN(c3ccc(OCCCC)cc3)CC2)CC1` [Example 303], the inhibition constant Ki at MMP-13 [1] is 0.46 nM. For the same compound, the IC50 at MMP-13 [2] stood at 0.1 nM.

With `COCCN1CCC(C(=O)NO)(S(=O)(=O)N2CCC(c3ncc(CC(C)C)s3)CC2)CC1` [Example 311], the Ki at MMP-13 [1] came to 1.56 nM.

`COCCN1CCC(C(=O)NO)(S(=O)(=O)N2CCC(c3ccc(CCC(F)(F)C(F)(F)F)cc3)CC2)CC1` [Example 312]: the Ki on MMP-13 [1] is 0.2 nM.
